Test results taken from ChEMBL document CHEMBL5325407, “Structure-based development of potent Plasmodium falciparum M1 and M17 aminopeptidase selective and dual inhibitors via S1'-region optimisation” (Eur J Med Chem, 2023).
In brackets after ≈: the same amount, converted by molar mass. Activity calls are given as the source filed them. The calls are words filed in the database; no cut-off is given here.

Tests used:
[1] = (§1) Inhibition of C-terminal 6-His tagged Plasmodium falciparum M17 aminopeptidase (85 to 605 residues) expressed in Escherichia coli BL21 (DE3) cells using H-Leu-NHMec as substrate assessed as apparent inhibition constant preincubated for 10 mins followed by substrate addition by spectrofluorimetric analysis; conditions: read-out: Ki(app)
[2] = as §1, with “M1” for “M17”, “(195” for “(85”, “1085” for “605”, “BL21(DE3)” for “BL21 (DE3)”; conditions: read-out: Ki(app)
Plasmodium falciparum [3] = assay: Inhibition of C-terminal 6-His tagged Plasmodium falciparum M17 aminopeptidase (85 to 605 residues) expressed in Escherichia coli BL21 (DE3) cells using H-Leu-NHMec as substrate at less than 500 nM preincubated for 10 mins followed by substrate addition by spectrofluorimetric analysis
Plasmodium falciparum [4] = assay: Antiplasmodial activity against drug-sensitive Plasmodium falciparum 3D7 infected in Red blood cell assessed as growth inhibition measured after 72 hrs by LDH assay; type: functional, organism-based; conditions: 3D7, Erythrocyte
Plasmodium falciparum [5] = assay: (§2) Inhibition of C-terminal 6-His tagged Plasmodium falciparum M1 aminopeptidase (195 to 1085 residues) expressed in Escherichia coli BL21(DE3) cells using H-Leu-NHMec as substrate at less than 500 nM preincubated for 10 mins followed by substrate addition by spectrofluorimetric analysis
[6] = as §2, with “assessed as initial inhibition constant” for “at less than 500 nM”
[7] = Inhibition of TEV-fused Plasmodium falciparum M17 aminopeptidase (192 to 1085 residues) expressed in Escherichia coli Rosetta 2 (DE3) cells using alanine para-nitroanilide as substrate assessed as apparent inhibition constant measured after 30 mins by spectrophotometric analysis; conditions: read-out: Ki(app)
[8] = Kinetic solubility of the compound in phosphate buffer at pH 6.5 measured after 30 mins by nephelometric analysis; type: physicochemical; conditions: read-out: Kinetic_solubility
[9] = Metabolic stability in human liver microsomes assessed as half life measured for 60 mins in presence of NADPH; type: ADME, Microsome
[10] = Metabolic stability in mouse liver microsomes assessed as half life measured for 60 mins in presence of NADPH; type: ADME, Microsome
[11] = Inhibition of TEV-fused Plasmodium falciparum M1 aminopeptidase (192 to 1085 residues) expressed in Escherichia coli Rosetta 2 (DE3) cells using alanine para-nitroanilide as substrate assessed as apparent inhibition constant measured after 30 mins by spectrophotometric analysis; conditions: read-out: Ki(app)
[12] = Kinetic solubility of the compound in 0.01 M HCL at pH 2.0 measured after 30 mins by nephelometric analysis; type: physicochemical; conditions: read-out: Kinetic_solubility

| SMILES | Ki [1] | Ki [2] | EC50 (Plasmodium falciparum [4]) | other results |
| --- | --- | --- | --- | --- |
| CN1CC(C(=O)NC(C(=O)NO)c2ccc(-c3cc(F)c(F)c(F)c3)cc2)C1 (stereo not given) | > 500 nM | > 500 nM | – | – |
| COc1ccc(NCC(=O)NC(C(=O)NO)c2ccc(Br)cc2)cc1 (stereo not given) | > 500 nM | 88 nM | 114 nM | inhibition (Plasmodium falciparum [3]): inactive |
| CC(C)NC(=O)NC(C(=O)NO)c1ccc(-c2cc(F)c(F)c(F)c2)cc1 (stereo not given) | 120 nM | > 500 nM | 285 nM | – |
| O=C(CNc1cc(F)cc(F)c1)NC(C(=O)NO)c1ccc(Br)cc1 (stereo not given) | > 500 nM | 16 nM | 250 nM | – |
| O=C(NC(C(=O)NO)c1ccc(-c2cc(F)c(F)c(F)c2)cc1)C1CNC1 (stereo not given) | > 500 nM | > 500 nM | – | – |
| O=C(COc1ccccc1)NC(C(=O)NO)c1ccc(-c2cc(F)c(F)c(F)c2)cc1 (stereo not given) | 137 nM | 390 nM | 1450 nM | – |
| CN1CCC(C(=O)NC(C(=O)NO)c2ccc(-c3cc(F)c(F)c(F)c3)cc2)C1 (stereo not given) | > 500 nM | > 500 nM | – | – |
| O=C(CNc1ccccc1)NC(C(=O)NO)c1ccc(Br)cc1 (stereo not given) | > 500 nM | 36 nM | 175 nM | – |
| O=C(NC(C(=O)NO)c1ccc(-c2cc(F)c(F)c(F)c2)cc1)c1cc2ccccc2[nH]1 (stereo not given) | > 500 nM | > 500 nM | – | inhibition (Plasmodium falciparum [5]): inactive; inhibition (Plasmodium falciparum [3]): inactive |
| O=C(CNc1ccc2cc[nH]c2c1)NC(C(=O)NO)c1ccc(Br)cc1 (stereo not given) | > 500 nM | 35 nM | 155 nM | – |
| O=C(CNc1cccc(F)c1)NC(C(=O)NO)c1ccc(Cl)cc1 (stereo not given) | > 500 nM | 49 nM | 175 nM | – |
| COc1ccccc1NCC(=O)NC(C(=O)NO)c1ccc(Br)cc1 (stereo not given) | > 500 nM | 128 nM | 145 nM | inhibition (Plasmodium falciparum [3]): inactive |
| O=C(CSc1ccccc1)NC(C(=O)NO)c1ccc(Br)cc1 (stereo not given) | 287 nM | 68 nM | 230 nM | – |
| O=C(CCc1ccccc1)NC(C(=O)NO)c1ccc(-c2cc(F)c(F)c(F)c2)cc1 (stereo not given) | 70 nM | 246 nM | 460 nM | – |
| O=C(CNc1cccc(F)c1)NC(C(=O)NO)c1ccc(Br)cc1 (stereo not given) | > 500 nM | 21 nM | 135 nM | – |
| O=C(CSc1ccccc1)NC(C(=O)NO)c1ccc(-c2cc(F)c(F)c(F)c2)cc1 (stereo not given) | 238 nM | 195 nM | 430 nM | – |
| COc1cccc(NCC(=O)NC(C(=O)NO)c2ccc(Br)cc2)c1 (stereo not given) | > 500 nM | 72 nM | 102 nM | inhibition (Plasmodium falciparum [3]): inactive |
| O=C(CNc1cccc(F)c1)NC(C(=O)NO)c1ccc(-c2cc(F)c(F)c(F)c2)cc1 (stereo not given) | > 500 nM | > 500 nM | – | – |
| CC1(C(=O)NC(C(=O)NO)c2ccc(-c3cc(F)c(F)c(F)c3)cc2)COC1 (stereo not given) | 294 nM | 439 nM | 610 nM | – |
| O=C(CN1CCCCC1)NC(C(=O)NO)c1ccc(-c2cc(F)c(F)c(F)c2)cc1 (stereo not given) | > 500 nM | > 500 nM | – | – |

| SMILES | Ki [1] | Ki [2] | EC50 (Plasmodium falciparum [4]) | other results |
| --- | --- | --- | --- | --- |
| CC(C)(N)C(=O)NC(C(=O)NO)c1ccc(-c2cc(F)c(F)c(F)c2)cc1 (stereo not given) | > 500 nM | 227 nM | 1200 nM | – |
| O=C(NC(C(=O)NO)c1ccc(-c2cc(F)c(F)c(F)c2)cc1)C1CCCN1 (stereo not given) | > 500 nM | 330 nM | 625 nM | – |
| O=C(CCc1ccccc1)NC(C(=O)NO)c1ccc(Br)cc1 (stereo not given) | 14 nM | 222 nM | 205 nM | – |
| O=C(CNc1ccc(F)c(F)c1)NC(C(=O)NO)c1ccc(-c2cc(F)c(F)c(F)c2)cc1 (stereo not given) | > 500 nM | > 500 nM | – | – |
| COc1ccc(NCC(=O)NC(C(=O)NO)c2ccc(-c3cc(F)c(F)c(F)c3)cc2)cc1 (stereo not given) | > 500 nM | > 500 nM | – | – |
| O=C(COc1ccccc1)NC(C(=O)NO)c1ccc(Br)cc1 (stereo not given) | 230 nM | > 500 nM | 620 nM | – |
| O=C(NC(C(=O)NO)c1ccc(-c2cc(F)c(F)c(F)c2)cc1)C1CCO1 (stereo not given) | > 500 nM | 203 nM | 350 nM | – |
| CC(C)(O)CC(=O)NC(C(=O)NO)c1ccc(-c2cc(F)c(F)c(F)c2)cc1 (stereo not given) | 90 nM | 154 nM | 155 nM | – |
| COc1ccccc1NCC(=O)NC(C(=O)NO)c1ccc(-c2cc(F)c(F)c(F)c2)cc1 (stereo not given) | > 500 nM | > 500 nM | – | – |
| O=C(NC(C(=O)NO)c1ccc(-c2cc(F)c(F)c(F)c2)cc1)C1CCNC1 (stereo not given) | > 500 nM | > 500 nM | – | – |
| CN(C)CC(=O)NC(C(=O)NO)c1ccc(-c2cc(F)c(F)c(F)c2)cc1 (stereo not given) | > 500 nM | 185 nM | 480 nM | – |
| O=C(NC(C(=O)NO)c1ccc(Br)cc1)c1cc2ccccc2[nH]1 (stereo not given) | > 500 nM | > 500 nM | – | – |
| CC(C)(C)NC(=O)NC(C(=O)NO)c1ccc(-c2cc(F)c(F)c(F)c2)cc1 (stereo not given) | 430 nM | > 500 nM | – | – |
| COc1cccc(NCC(=O)NC(C(=O)NO)c2ccc(-c3cc(F)c(F)c(F)c3)cc2)c1 (stereo not given) | > 500 nM | > 500 nM | – | – |
| O=C(CN1CCC1)NC(C(=O)NO)c1ccc(-c2cc(F)c(F)c(F)c2)cc1 (stereo not given) | > 500 nM | 263 nM | 1800 nM | – |
| CN(C)C(C)(C)C(=O)NC(C(=O)NO)c1ccc(-c2cc(F)c(F)c(F)c2)cc1 (stereo not given) | > 500 nM | > 500 nM | – | – |
| O=C(CNc1ccccc1F)NC(C(=O)NO)c1ccc(Br)cc1 (stereo not given) | > 500 nM | 26 nM | 155 nM | – |
| O=C(NC(C(=O)NO)c1ccc(-c2cc(F)c(F)c(F)c2)cc1)C1CCN1 (stereo not given) | > 500 nM | > 500 nM | – | – |
| O=C(CNc1ccc2cc[nH]c2c1)NC(C(=O)NO)c1ccc(-c2cc(F)c(F)c(F)c2)cc1 (stereo not given) | > 500 nM | 146 nM | 220 nM | – |
| CC(C)(N)CC(=O)NC(C(=O)NO)c1ccc(-c2cc(F)c(F)c(F)c2)cc1 (stereo not given) | 28 nM | 320 nM | 1350 nM | – |

| SMILES | Ki [1] | Ki [2] | EC50 (Plasmodium falciparum [4]) | other results |
| --- | --- | --- | --- | --- |
| O=C(NC1CCCC1)NC(C(=O)NO)c1ccc(-c2cc(F)c(F)c(F)c2)cc1 (stereo not given) | 122 nM | 311 nM | 370 nM | – |
| O=C(CNc1cc(F)cc(F)c1)NC(C(=O)NO)c1ccc(-c2cc(F)c(F)c(F)c2)cc1 (stereo not given) | > 500 nM | 131 nM | 675 nM | Ki [6]: 513 nM |
| CN(CC(=O)NC(C(=O)NO)c1ccc(Br)cc1)c1ccccc1 (stereo not given) | > 500 nM | 18 nM | 145 nM | – |
| CN1CCCC1C(=O)NC(C(=O)NO)c1ccc(-c2cc(F)c(F)c(F)c2)cc1 (stereo not given) | > 500 nM | > 500 nM | – | – |
| O=C(CNc1ccccc1F)NC(C(=O)NO)c1ccc(-c2cc(F)c(F)c(F)c2)cc1 (stereo not given) | > 500 nM | > 500 nM | 285 nM | – |
| CN(CC(=O)NC(C(=O)NO)c1ccc(-c2cc(F)c(F)c(F)c2)cc1)c1ccccc1 (stereo not given) | > 500 nM | > 500 nM | – | – |
| CC(C)(C)C(=O)NC(C(=O)NO)c1ccc(-c2cc(F)c(F)c(F)c2)cc1 (stereo not given) | – | – | 340 nM | – |
| O=C(CNc1ccc(F)cc1)NC(C(=O)NO)c1ccc(-c2cc(F)c(F)c(F)c2)cc1 (stereo not given) | > 500 nM | > 500 nM | – | – |
| O=C(CN1CCCC1)NC(C(=O)NO)c1ccc(-c2cc(F)c(F)c(F)c2)cc1 (stereo not given) | > 500 nM | 456 nM | 725 nM | – |
| O=C(CNc1ccccc1)NC(C(=O)NO)c1ccc(Cl)cc1 (stereo not given) | > 500 nM | 79 nM | 200 nM | – |
| CC(C)(C)CC(=O)NC(C(=O)NO)c1ccc(-c2cc(F)c(F)c(F)c2)cc1 (stereo not given) | – | – | 63 nM | Ki [7]: 101 nM; solubility kinetic at 0.5 h [8]: 12.5 µg/mL (≈ 31.7 µM); half-life [9]: 2.48 h; half-life [10]: 1.5 h; Ki [11]: 269 nM; solubility kinetic at 0.5 h [12]: 12.5 µg/mL (≈ 31.7 µM) |
| CCN(CC)CCCC(C)Nc1ccnc2cc(Cl)ccc12 (stereo not given) [CHLOROQUINE] | – | – | 33 nM | – |
| O=C(CNc1ccc(F)cc1)NC(C(=O)NO)c1ccc(Cl)cc1 (stereo not given) | > 500 nM | 49 nM | 220 nM | – |
| CN(C)C(C)(C)CC(=O)NC(C(=O)NO)c1ccc(-c2cc(F)c(F)c(F)c2)cc1 (stereo not given) | 293 nM | 500 nM | 825 nM | – |
| O=C(CNc1ccc(F)c(F)c1)NC(C(=O)NO)c1ccc(Br)cc1 (stereo not given) | > 500 nM | > 500 nM | – | – |
| O=C(CNc1ccc(F)cc1)NC(C(=O)NO)c1ccc(Br)cc1 (stereo not given) | > 500 nM | 38 nM | 250 nM | – |
| O=C(NC(C(=O)NO)c1ccc(-c2cc(F)c(F)c(F)c2)cc1)C1CCOC1 (stereo not given) | 307 nM | 259 nM | 605 nM | – |
| CN1CCC1C(=O)NC(C(=O)NO)c1ccc(-c2cc(F)c(F)c(F)c2)cc1 (stereo not given) | > 500 nM | > 500 nM | – | – |
